≈ marks a conversion by molar mass, not a printed value.
Assay: solubility in water
Type: physicochemical
Settings: 25° C.

O=S(=O)(CCCC(F)(F)F)Oc1cccc(Oc2cccc3c2C[C@H](CO)C3)c1 [Compound (I), (−)-(R)-3-(2-Hydroxymethylindanyl-4-oxy)phenyl 4,4,4-trifluorobutane-1-sulfonate]
solubility: 2 µg/mL (≈ 4.65 µM)
